Results reported in patent US10875856B2, “CPAP-tubulin module” (UNIVERSITAET ZU KOELN, priority 2015, dated 2020).
pIC50: −log10 of the molar value. Entries after “also recorded” stand apart in the source; their conditions may differ. Like-named read-outs stand apart in the source and are kept apart here.

Legend:
[1] = tested on: CPAP-tubulin interaction; test: AlphaScreen assay of inhibition of the CPAP-tubulin interaction (normalized AlphaScreen signal; triplicate determination; TruHit kit as counter-control); format: binding
Excerpt: FIGS. 1 to 4, 19 and 20 show normalized AlphaScreen signal for conventional tubulin binders Vinblastin (FIG. 1), Paclitaxel (FIG. 2), Docetaxel (FIG. 3) Colchicin (FIG. 4), Bactallin III (FIG. 19) and Taxol (FIG. 20).
Most tubulin-binding agents act on spindle microtubules and thus prevent mitosis nonspecifically.
The Error bars in FIGS. 1 to 16, 19 and 20 indicate data from a triplicate determination. The TruHit Kit captures possible effects on AlphaScreen assay technology.

[2] = tested on: Plk-4-inducible MCF10A cells; test: tolerability and cellular toxicity in Plk-4-inducible MCF10A; format: cell-based, human
Excerpt: Building on Example 1, a proof-of-principle experiment was established in which lentiviral-mediated transduction of constitutive or doxycycline-inducible CPAP^F375A that cannot interact with tubulin (hereafter CPAPΔT) was introduced into non-transformed human mammary epithelial MCF10A cells. These MCF10A cells are engineered to regulate centrosome amplification via doxycycline-inducible overexpression of Polo-Like-Kinase (PLK4). Introducing CPAPΔT prematurely activated Plk4-induced extra-centrosomes in interphase to nucleate microtubules and prevented them from clustering.
Since compound (A) is a tubulin binder, its tolerability and cellular toxicity in comparison to taxol in Plk-4-inducible MCF10A was evaluated.

[3] = tested on: two-centrosomes containing cells; test: live imaging for microtubule toxic effect; format: cell-based
Description: Except compound (B), neither of the tested tubulin binders could perturb CPAP-tubulin interaction, enhance PCM recruitment to interphase centrosomes and prevent extra centrosomes from clustering. […] In addition, to rule out the possible microtubule toxic effect of compound (B), live imaging experiments were performed.

[4] = tested on: extra-centrosomes in cancer cells; test: cell-based assay of centrosome declustering activity
Description: (§1) To evaluate the effect of compound (A) in cancer cells, a spectrum of breast cancer-(BT549, MDA-MB-231), lung cancer-(TKI-sensitive PC9, TKI-resistant H1975^T790M or HCC827 with C-met amplification) and hepatocellular carcinoma-(POP10) cells was treated with compound (A) for 24 h.

[5] = tested on: cancer cells; test: 24 h EdU pulse labeling experiment; format: cell-based; conditions: 24 h pulse labeling
[6] = tested on: MDA-MB-231 cells expressing tubulin-GFP; test: live cell experiments, MDA-MB-231 tubulin-GFP; format: cell-based
[7] = tested on: subcutaneous human prostate tumor cell (PC3) xenografts; test: PC3 xenograft in nude mice; format: in vivo
Description: To evaluate the anti-tumor activity of compound (A), compound (A) was delivered to nude mice bearing subcutaneous human prostate tumor cell (PC3) xenografts. Compound (A) was administered (10 mg/kg) by oral gavage once per day and the rate of tumor growth was monitored. Compared to vehicle treated controls, it was noticed a reduction in tumor growth rate in compound-(A)-treated mice. Importantly, the anti-tumor activity of compound (A) could be observed as determined by reduced tumor volume with respect to control at day 10.
(§2) To evaluate if compound (B) has anti-tumor activity in vivo, nude mice bearing subcutaneous human prostate (PC3) and breast (MDA-MB-231) tumor xenografts were used.
(§3) In each case, two groups of mice bearing tumor volume >100 mm^3 were used. Compound (B) (10 or 20 mg, Kg-1/day) by oral gavage was delivered. At the end of treatment, we measured the total tumor volume of compound (B)-treated groups and compared with vehicle-treated controls.

[8] = tested on: BT549, MDA-MB-231, PC9, H1975T790M, HCC827, POP10 cells; test: cancer cell proliferation, spectrum of cancer cell lines; format: cell-based; conditions: range over BT549, MDA-MB-231, PC9, H1975T790M
Description: as §1
The effects of compound (B) on a spectrum of breast cancer-(BT549, MDA-MB-231),NSCLC-(PC9, TM-resistant H1975T790M, HCC827-GR) and hepatocellular-carcinoma-(POP10)-cells were tested by treatment with compound (B) for 72 hrs.

[9] = tested on: A549 cells; test: cell proliferation with erlotinib, A549; format: cell-based
[10] = tested on: H827 cells; test: cell proliferation with erlotinib, H827; format: cell-based
[11] = tested on: 3D-organotypic cultures of H1975T790M, HCC827-GR and A549; test: 3D organotypic culture invasion model; format: cell-based
Excerpt: Further, to test whether preventing CPAP-tubulin interaction could impair cancer cell invasiveness, a three-dimensional (3D) organotypic culture model for cancer cells was adapted that recapitulates many aspects of human epithelial cancer tissue architecture.

[12] = tested on: CPAP-tubulin interaction in MCF10A cells; test: immunopurification of CPAP complexes from treated cells; format: cell-based, human; conditions: CPAP complexes from cytoplasmic extracts of MCF10A
Description: Finally, it was tested if compound (B) could prevent CPAP-tubulin interaction in cells and simultaneously enhance the ability of CPAP to bind its interacting proteins. CPAP complexes from cytoplasmic extracts of compound (B)-treated MCF10A cells were immunopurified.

[13] = stability; format: physicochemical
[14] = tested on: subcutaneous human breast (MDA-MB-231) tumor xenografts; test: MDA-MB-231 xenograft in nude mice; format: in vivo
Description: as §2, §3

[15] = tested on: MCF10A (+Dox, extra centrosomes) and HCC827-GR cells; test: live imaging of extra-centrosome cells; format: cell-based, human
[16] = tested on: Cep152, PCNT and CDK5RAP2 recruitment to interphase centrosomes of MCF10A cells; test: PCM protein recruitment to interphase centrosomes (imaging, heat map intensity); format: cell-based, human; conditions: versus vehicle
Excerpt: Mechanisms by which compound (B) activates extra centrosomes to nucleate enhanced microtubules were identified. Peri-centriolar material (PCM) recruitment to centrosomes is required for microtubule nucleation.
To test this, we estimated the amounts of Cep152, PCNT and CDK5RAP2 recruitment to interphase centrosomes of compound (B)—treated MCF10A cells.

[17] = solubility; format: physicochemical

**Q.** Which IC50 ([1]; values given in µM) does the source give for `N#Cc1c(NCc2ccccc2)ncc2cc3ccccc3nc12` [Compound E] here?
**A.** Its IC50 is 1.21 µM.

**Q.** Which IC50 ([1]; values given in µM) does the source give for `Nc1n[nH]c2ncc3cc4ccccc4nc3c12` [Compound F] here?
**A.** Its IC50 is 6.94 µM.

**Q.** With `CC(=O)O[C@H]1C(=O)[C@@]2(C)[C@H]([C@H](OC(=O)c3ccccc3)[C@]3(O)C[C@H](OC(=O)[C@H](O)[C@@H](NC(=O)c4ccccc4)c4ccccc4)C(C)=C1C3(C)C)[C@]1(OC(C)=O)CO[C@@H]1C[C@@H]2O` [Paclitaxel, reference compound] as the molecule, how does the IC50 ([1]; values given in µM) read?
**A.** Its IC50 is 52.6 µM.

**Q.** For `CC(=O)O[C@H]1C(=O)[C@@]2(C)[C@H]([C@H](OC(=O)c3ccccc3)[C@]3(O)C[C@H](OC(=O)[C@H](O)[C@@H](NC(=O)c4ccccc4)c4ccccc4)C(C)=C1C3(C)C)[C@]1(OC(C)=O)CO[C@@H]1C[C@@H]2O` [taxol, reference compound], which “MCF10A cell proliferation regardless of extra centrosomes” value ([2]; 100 nM) is on record?
**A.** Its value is “non-selectively prevented”.

**Q.** And the “centrosome clustering in MCF10A” value ([2]; taxol treatment)?
**A.** Its value is “did not affect centrosome clustering”.

**Q.** And the “concentration that collapsed the spindles” value [3]?
**A.** The value was 30 nM.

**Q.** With `CCCCNc1ncc2cc3ccccc3nc2c1C#N` [compound (A)] as the molecule, how does the “concentration causing declustering of extra-centrosomes in interphase” value ([4]; BT549 cells, 24 h treatment) read?
**A.** Its value is 500 nM.

**Q.** And the “number of cancer cells with EdU incorporation” value [5]?
**A.** Its value is “reduced number”.

**Q.** What about the “proliferation of MCF10A cells that harbor extra centrosomes” value [2] of the same molecule?
**A.** The value was “specifically inhibited”.

**Q.** And the “concentration tolerated without defect in bipolar mitotic spindles” value ([2]; MCF10A cells with two centrosomes)?
**A.** The value was “up to 10 μM”.

**Q.** What about the “mitosis and cell fate in live cells” value [6] of the same molecule?
**A.** Its value is “prolonged mitosis with eventual apoptosis”.

**Q.** And the “tumor growth rate versus vehicle” value ([7]; PC3, 10 mg/kg oral gavage once per day)?
**A.** The value was “reduction”.

**Q.** What about the “tumor volume with respect to control” value ([7]; PC3, 10 mg/kg oral gavage once per day, day 10) of the same molecule?
**A.** Its value is “reduced”.

**Q.** And the pIC50 ([8]; HCC827, POP10, treated 24 h)?
**A.** The pIC50 was 5.54 to 6.07.

**Q.** For `C#Cc1cccc(Nc2ncnc3cc(OCCOC)c(OCCOC)cc23)c1` [erlotinib], which “centrosome clustering in H827” value ([4]; H827 cells, erlotinib treatment) is on record?
**A.** The value was “does not affect centrosome clustering”.

**Q.** What about the pIC50 ([9]; A549, single agent, read-out: IC50 of cell proliferation) of the same molecule?
**A.** The pIC50 was 5.29.

**Q.** And the pIC50 ([9]; Homo sapiens, A549, A549, addition of 1.5 μM compound (A), read-out: IC50 of erlotinib in combinatorial treatment)?
**A.** Its pIC50 is 6.30.

**Q.** What about the pIC50 ([9]; Homo sapiens, A549, A549, single agent, read-out: IC50 of cell proliferation) of the same molecule?
**A.** Its pIC50 is 5.30.

**Q.** And the pIC50 ([10]; H827, combined with 750 nM compound (A), read-out: IC50 of erlotinib in combinatorial treatment)?
**A.** Its pIC50 is 7.52.

**Q.** And the pIC50 ([10]; H827, single agent, read-out: IC50 of cell proliferation)?
**A.** Its pIC50 is 5.16.

**Q.** What about the “prevention of formation of invasive protrusions” value ([11]; 3D organotypic cultures of H1975 and A549) of the same molecule?
**A.** Its value is “not”.

**Q.** With `N#Cc1c(SCC(=O)Nc2ccccc2)ncc2cc3ccccc3nc12` [Compound I] as the molecule, how does the IC50 ([1]; values given in µM) read?
**A.** The IC50 was 1.76 µM.

**Q.** For `CCC(CO)Nc1ncc2cc3ccccc3nc2c1C#N` (racemic) [Racemic mixture of compounds C and C‘], which IC50 ([1]; values given in µM) is on record?
**A.** The IC50 was 1.39 µM.

**Q.** With `N#Cc1c(N2CCCCCC2)ncc2cc3ccccc3nc12` [Compound J] as the molecule, how does the IC50 ([1]; values given in µM) read?
**A.** The IC50 was 6.32 µM.

**Q.** With `N#Cc1c(Sc2ccccc2)ncc2cc3ccccc3nc12` [Compound G] as the molecule, how does the IC50 ([1]; values in nM) read?
**A.** The IC50 was 0.211 µM.

**Q.** For `COc1ncc2cc3ccccc3nc2c1C#N` [compound (B), 3-Methoxybenzo[b][1,6]naphthyridine-4-carbonitrile], which “centrosome declustering activity (preventing extra centrosomes from clustering)” value ([4]; cancer cells) is on record?
**A.** Its value is “potent; also recorded: prevented clustering of extra centrosomes”.

**Q.** And the “CPAP-tubulin interaction in cells” value [12]?
**A.** The value was “specifically perturbs”.

**Q.** And the “stability relative to compound (A)” value [13]?
**A.** Its value is “increased”.

**Q.** What about the “concentration not affecting microtubule dynamics, cell cycle progression or mitotic spindle assembly” value [3] of the same molecule?
**A.** Its value is “up to 5 μM”.

**Q.** What about the “concentration not preventing formation of bipolar mitotic spindles” value [3] of the same molecule?
**A.** The value was “up to 8 μM”.

**Q.** And the “tumor growth rate versus vehicle” value ([14]; MDA-MB-231, 10 or 20 mg/kg/day oral gavage)?
**A.** The value was “significant reduction”.

**Q.** And the “tumor volume with respect to control” value ([14]; MDA-MB-231, after 31 days)?
**A.** Its value is “reduced”.

**Q.** What about the “body weights of treated animals” value ([14]; MDA-MB-231 model, 10 or 20 mg/kg/day oral) of the same molecule?
**A.** Its value is “did not change”.

**Q.** And the “tumor growth rate versus vehicle” value ([7]; PC3, 10 or 20 mg/kg/day oral gavage)?
**A.** Its value is “significant reduction”.

**Q.** And the “tumor volume with respect to control” value ([7]; PC3, after 10 days)?
**A.** The value was “reduced”.

**Q.** And the “body weights of treated animals” value ([7]; PC3 model, 10 or 20 mg/kg/day oral)?
**A.** Its value is “did not change”.

**Q.** What about the “mitosis and cell fate in live imaging” value [15] of the same molecule?
**A.** Its value is “prolonged mitosis with an apparent apoptosis”.

**Q.** What about the pIC50 ([8]; HCC827-GR, POP10, treated 72 hrs) of the same molecule?
**A.** The pIC50 was 5.54 to 6.07.

**Q.** And the “recruitment of PCM proteins (Cep152, PCNT, CDK5RAP2) to interphase centrosomes” value [16]?
**A.** Its value is “enhanced amounts”.

**Q.** And the “solubility relative to compound (A)” value [17]?
**A.** Its value is “increased”.

**Q.** And the “prevention of actin-positive invasive protrusions from 3D spheres” value ([11]; 5 μM, H1975T790M, HCC827-GR, A549 organoids)?
**A.** The value was “sufficient to prevent”.

**Q.** And the “cell death in organoids” value ([11]; H1975T790M organoids)?
**A.** Its value is “activated caspase-positive cells”.

**Q.** What about the organoid growth ([11]; treated organoids) of the same molecule?
**A.** Its organoid growth is “did not grow further from its original size”.

**Q.** For `N#Cc1c(N2CCCCC2)ncc2cc3ccccc3nc12` [Compound L], which IC50 ([1]; values given in µM) is on record?
**A.** Its IC50 is 1.88 µM.

**Q.** With `N#Cc1c(Cl)ncc2cc3ccccc3nc12` [Compound D] as the molecule, how does the IC50 ([1]; values in nM) read?
**A.** The IC50 was 0.023 µM.
